What was measured:
tracheae = assay: Passive Schultz-Dale (S-D) reaction, relaxation of antigen-contracted tracheal strips; set-up: species or system Hartley guinea pigs; details: Cavia porcellus; concentration of 50% relaxation rate; passively sensitized guinea pig tracheal strips contracted with egg white albumin 1 µg/ml
Procedure: Male Hartley guinea pigs weighing 350 to 500 g were passively sensitized by intraperitoneal injection of rabbit anti-OA serum prepared in advance by the method of Koda et al. [Folia Pharmacol., Japon 66, 237, (1970)]. After 24 hours, the guinea pigs were stunned and exsanguinated, and then tracheae were removed. The zig-zag strips of the tracheae were prepared by the method of Emmerson and Mackay [J. Pharm. Pharmacol., 31, 798, (1979)]. The strips were suspended in Krebs-Henseleit solution at 37°C under aeration of a mixed gas of 95% oxygen and 5% carbon dioxide, and equilibrated for one hour. Then, antigen (egg white albumin) was introduced in the solution (final concentration; 1 µg/ml), and the contraction was measured by isotonictransducer (TD-112s, Nihon Kohden Co., Ltd.) and recorded on a recorder (Type 3066, Yokogawa-Hokushin Denki, Co., Ltd.). After the contraction curves reached a plateau, the test compounds were successively added in order to get cumulative concentration-relaxation curves. The concentration of 50% relaxation rate (IC50) was calculated from the regression line, which was obtained from the cumulative concentration-relaxation curves.

PAF-induced mortality = assay: Inhibition effect on platelet activating factor (PAF)-induced mortality; format: in vivo, dd mice; details: Mus musculus, po, 2 h, minimum effective dose, orally, one hour before 40 µg/kg PAF intravenously, mortality two hours after PAF, read-out: Inhibition of PAF-induced mortality MED
Procedure: The experiment was performed by a minor modification of method of Carlson et al. [Agents and Actions, 21, 379 (1987)]. Groups each consisting of 10 male dd mice (weighing 28 to 32 g) were used, and 100 mg/kg of test compound or a saline (control) was orally administered. One hour after the administration of the test compound, 40 µg/kg of PAF (manufactured by Avanti Polar Lipids Co., Ltd.) were intravenously administered. Two hours after PAF injection, the mortality rate of the animals was observed. […]

Acute toxicity test = format: in vivo, dd-strain mice; details: orally administered; mortality observed for seven days
Procedure: Male dd-strain mice weighing 20 -25 g, groups each consisting of 3 animals, were used, and Compound 1 and Compound 3 were orally administered. MLD was determined by observing the mortality for seven days after the administration. MLD of both compounds were over 300 mg/kg.

hair growth = assay: Hair growth stimulation; format: in vivo, C3H/HeSlc-strain mice; details: 16th day; applied once a day in ethanol : propyleneglycol (6 : 4); Compound 1 at 0.14 %, Compound 3 at 1.00 % (Table 4)
Description: Effect of test compound on hair growth in mice was examined. Hair on the back of male C3H/HeSlc-strain mice aged 9 weeks, which was in the telogen of hair cycle was clipped off by an electric hair-clipper. The test compound dissolved in a solvent mixture [ethanol : propyleneglycol (6 : 4)] was uniformly applied to the hair removed area of the mice once a day. The group which received the solvent mixture alone was used as control.
Hair growth stimulation was estimated by measuring the ratio of the hair growing area to the test compound treated area by photograph. In the group having received the test comound, darkening of intraderma (indicating the formation of hair follicles) was observed on the 10th day, and then hair growth rapidly progressed.
In contrast, on the 16th day of the control group, darkening of intraderma was observed only in the part of the solvent treated area and hair growth scarcely occurred. […]

spleen cells = assay: Plaque forming cell assay (inhibition of antibody production); format: cell-based, Balb/c strain mice; details: Mus musculus, 120 h, inhibition of antibody production (PFC count), incubated 5 days, read-out: Inhibition rate (%); for inhibition at 10 µM: 10^-5M; for inhibition at 1 µM: 10^-6M
Procedure: The plaque forming cell assay was performed by the following manner with reference to the method of Jerne [Science, 140, 405, (1963)] and the method of Yamamoto et al. [Drugs Exptl. Clin. Res., 8, 5, (1982)].
Male Balb/c strain mice (aged 7 weeks, SLC) were sensitized with 1 x 10^8 sheep red blood cells (Bio Test Research Institute), and 6 or 7 days after the sensitization, the spleen was extirpated. The cells obtained from the spleen were treated with ACT solution (tris-ammonium chloride isotonic buffer) to remove red blood cells. The cells were washed three times with an RPMI-1640 medium (Nissui Pharmaceutical Co., Ltd.). The spleen cells (1 x 10^7 cells), the test compound dissolved in dimethyl sulfoxide and sheep blood red cells (5 x 10^6) were suspended in an RPMI-1640 medium containing 10% bovine serum (Gibco Company), 2-mercaptoethanol (5 x 10^-5M), 50 µg/ml of streptomycin and 50 IU/ml of penicillin. The suspension was distributed into a microculture plate (NUNC Co., Ltd., 24 holes), and incubated for 5 days in a carbon dioxide gas incubator at 37°C.
After the termination of the incubation, the cells were transferred to a plastic test tube. The supernatant was removed by centrifugal separation (2000 rpm), and the pellet was re-suspended in 1 ml of an RPMI-1640 culture medium. The cell suspension, sheep blood red cells, and guinea pig complement (Cedarlene Institute) were incubated by the method of Cunningham [Immunology, 14, 599, (1968)], at 37°C for 1 to 2 hours. The appearing direct plaque cells (PFC count) in suspension were counted. From the resulting PFC count, the inhibition rate of the antibody production of the test compound was determined by the following formula. Inhibition rate (%) =(A - B)/(A)x 100 [formula] A : PFC count in the absence of test compound (dimethylsulfoxide alone) B : PFC count in the presence of test compound

CC(C)Cc1n[nH]c2c1c(=O)n(-c1ccccc1)c1ncccc21 [Compound 3, 3-Isobutyl-5-phenyl-1H-pyrazolo[4,3-c][1,8]naphthyridin-4(5H)-one]
IC50 (tracheae): 258 nM
minimal effective dose (PAF-induced mortality): 5 mg/kg
MLD (Acute toxicity test): over 300 mg/kg
Hair growing area (%) Mean ± S.D. (hair growth): 91.8 ± 7.2%
inhibition at 10 µM (spleen cells): 74.9%
inhibition at 1 µM (spleen cells): 77.2%

O=c1c2c(-c3cccs3)n[nH]c2c2cccnc2n1-c1ccccc1 [Compound 10, 5-Phenyl-3-thienyl-1H-pyrazolo[4,3-c][1,8]naphthyridin-4(5H)-one]
IC50 (tracheae): 708 nM
inhibition at 10 µM (spleen cells): 83.9%
inhibition at 1 µM (spleen cells): 57.1%

Cn1nc(N)c2c(=O)n(-c3ccccc3)c3ncccc3c21 [Compound 6, 3-Amino-1-methyl-5-phenyl-1H-pyrazolo[4,3-c][1,8]naphthyridin-4(5H)-one]
inhibition at 10 µM (spleen cells): 76.5%

Cc1nn(C)c2c1c(=O)n(-c1ccccc1)c1ncccc21 [Compound 4, 1,3-Dimethyl-5-phenyl-1H-pyrazo1o[4,3-c][1,8]naphthyridin-4(5H)-one]
inhibition at 10 µM (spleen cells): 81.4%

COc1ccc(-c2n[nH]c3c2c(=O)n(-c2ccccc2)c2ncccc32)cc1 [Compound 11, 3-(4-methoxyphenyl)-5-phenyl-1H-pyrazolo[4,3-c][1,8]naphthyridin-4(5H)-one]
inhibition at 10 µM (spleen cells): 99.5%
inhibition at 1 µM (spleen cells): 26.5%

Cc1n[nH]c2c1c(=O)n(-c1ccccc1)c1ncccc21 [Compound 2, 3-Methyl-5-phenyl-1H-pyrazolo[4,3-c][1,8]naphthyridin-4(5H)-one]
inhibition at 10 µM (spleen cells): 92.4%
inhibition at 1 µM (spleen cells): 85.8%

O=c1c2c(-c3ccccc3)n[nH]c2c2cccnc2n1-c1ccccc1 [Compound 1, 3,5-Diphenyl-1H-pyrazolo[4,3-c][1,8]naphthyridin-4(5H)-one]
IC50 (tracheae): 3150 nM
minimal effective dose (PAF-induced mortality): 10 mg/kg
MLD (Acute toxicity test): over 300 mg/kg
Hair growing area (%) Mean ± S.D. (hair growth): 91.5 ± 8.0%
inhibition at 10 µM (spleen cells): 85.8%
inhibition at 1 µM (spleen cells): 77.2%

Nc1c2c(=O)n(-c3ccccc3)c3ncccc3c2nn1-c1ccccc1 [Compound 7, 3-Amino-2,5-diphenyl-2H-pyrazolo[4,3-c][1,8]naphtyyridin-4(5H)-one]
inhibition at 10 µM (spleen cells): 83.8%
